Laboratory results as given in patent publication EP0596112A1, “NOVEL MACROLIDE COMPOUND AND PRODUCTION THEREOF” (YAMANOUCHI PHARMACEUTICAL CO. LTD., priority 1991, dated 1992).
≈ marks a conversion by molar mass, not a printed value.

Key:
[1] = tested on: Proteus vulgalis OX-19; assay: In vitro antibacterial activity (MIC), agar plate dilution method using Müller-Hinton medium; type: cell-based
Method: (§1) In vitro antibacterial activity (MIC) The antibacterial spectrum of the macrolide compound of the present invention was determined by the agar plate dilution method using Müller-Hinton medium which is commonly used for this purpose.

[2] = tested on: Pseudomonas aeruginosa IID5142; assay: as above; type: cell-based
Method: as §1

[3] = tested on: Escherichia coli 0-1; assay: as above; type: cell-based; conditions: 01
Method: as §1

[4] = tested on: Streptococcus pneumoniae IID552; assay: as above; type: cell-based
Method: as §1

[5] = tested on: Enterococcus faecalis IID682; assay: as above; type: cell-based
Method: as §1

[6] = tested on: Staphylococcus aureus FDA 209P JC-1; assay: as above; type: cell-based; conditions: FDA209P
Method: as §1

[7] = tested on: Staphylococcus epidermidis IID866; assay: as above; type: cell-based
Method: as §1

[8] = tested on: Streptococcus pyogenes Cook; assay: as above; type: cell-based
Method: as §1

[9] = tested on: Klebsiella pneumoniae ATTCC10031; assay: as above; type: cell-based
Method: as §1

[10] = tested on: Serratia marcescens IID620; assay: as above; type: cell-based
Method: as §1

[11] = Solubility (physicochemical properties)
[12] = tested on: Staphylococcus aureus FDA 209P; assay: In vitro antibacterial activity (MIC), agar plate dilution method using Müller-Hinton medium; type: cell-based; conditions: FDA209P
Method: as §1

[13] = in methanol, ethanol, acetone, ethyl acetate, benzene, toluene and chloroform

| MIC [1] | MIC [2] | MIC [3] | MIC [4] | MIC [5] | MIC [6] | MIC [7] | MIC [8] | MIC [9] | MIC [10] | Solubility [11, 13] | Solubility ([11]; in water and hexane) | MIC [12] | Structure (SMILES) |
| --- | --- | --- | --- | --- | --- | --- | --- | --- | --- | --- | --- | --- | --- |
| > 50 mg/L | > 50 mg/L | > 50 mg/L | > 50 mg/L | > 50 mg/L | 3.13 mg/L (≈ 3.56 µM) | 1.56 mg/L (≈ 1.77 µM) | 0.78 mg/L (≈ 0.887 µM) | > 50 mg/L | > 50 mg/L | Soluble | only sparingly soluble | – | COC1C(OCC(C)C2OC(=O)C(C)C(OC3CC(C)(O)C(O)C(C)O3)C(C)C(OC3OC(C)CC(=O)C3O)C(C)CC(C)(O)C(=O)C(C)C(O)C2C)OC(C)C(O)C1OC (stereo not drawn) [YL-02107Q-D substance] |
| > 100 mg/L | > 100 mg/L | > 100 mg/L | 3.13 mg/L (≈ 3.25 µM) | 1.56 mg/L (≈ 1.62 µM) | – | 0.78 mg/L (≈ 0.81 µM) | 0.39 mg/L (≈ 0.405 µM) | > 100 mg/L | > 100 mg/L | Soluble | only sparingly soluble | 0.78 mg/L (≈ 0.81 µM) | COC1C(OCC(C)C2OC(=O)C(C)C(OC3CC(C)(O)C(O)C(C)O3)C(C)C(OC3OC(C)CC(=O)C3O)C(C)CC(C)(O)C(=O)C(C)C(OC(=O)CC(C)C)C2C)OC(C)C(O)C1OC (stereo not drawn) [YL-02107Q substance] |
| > 50 mg/L | > 50 mg/L | > 50 mg/L | 50 mg/L (≈ 52.7 µM) | 25 mg/L (≈ 26.3 µM) | 3.13 mg/L (≈ 3.3 µM) | 3.13 mg/L (≈ 3.3 µM) | 0.78 mg/L (≈ 0.822 µM) | > 50 mg/L | > 50 mg/L | Soluble | only sparingly soluble | – | COC1C(OCC(C)C2OC(=O)C(C)C(OC3CC(O)C(O)C(C)O3)C(C)C(OC3OC(C)CC(=O)C3O)C(C)CC(C)(O)C(=O)C(C)C(OC(=O)CC(C)C)C2C)OC(C)C(O)C1OC (stereo not drawn) [YL-02107Q-B substance] |
